Reference: patent US20170348263A1, “COMPOSITIONS AND METHODS OF USING MODIFIED RELEASE SOLABEGRON FOR LOWER URINARY TRACT SYMPTOMS” (VELICEPT THERAPEUTICS, INC., priority 2016, published 2017)

Experiments:
beta-3 adrenoceptor [1] = molecular target: T1, beta-3 adrenoceptor (Rattus norvegicus, UniProt P26255); assay: EC90 determination: inhibition of EFS-induced contraction in rat isolated bladder (pilot CCRC); type: cell-based; details: pilot concentration response curves, read-out: EC90 concentration to inhibit EFS-induced contraction
T1 construct: The bladder longitudinal smooth muscle, with the urothelium still attached were mounted in 25 mL organ baths; from tissue; host or cells: rat urinary bladder smooth muscle strips (Male CD rats)
T1 sequence (P26255 whole entry): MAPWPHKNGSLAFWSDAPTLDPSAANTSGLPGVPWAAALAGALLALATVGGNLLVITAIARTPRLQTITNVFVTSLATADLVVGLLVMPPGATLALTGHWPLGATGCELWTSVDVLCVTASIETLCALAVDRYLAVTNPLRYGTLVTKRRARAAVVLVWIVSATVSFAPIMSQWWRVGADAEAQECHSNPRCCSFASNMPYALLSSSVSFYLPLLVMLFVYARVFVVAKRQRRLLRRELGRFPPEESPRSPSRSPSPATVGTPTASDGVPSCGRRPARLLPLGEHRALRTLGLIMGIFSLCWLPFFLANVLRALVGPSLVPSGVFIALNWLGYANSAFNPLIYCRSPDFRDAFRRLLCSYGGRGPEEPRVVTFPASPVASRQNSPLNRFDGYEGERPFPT
Method: Macroscopically normal bladders obtained from Male CD rats (220-250 g) were used. […] Each bladder was cleaned free of surrounding connective tissue and halved longitudinally. The bladder longitudinal smooth muscle, with the urothelium still attached were mounted in 25 mL organ baths containing physiological saline solution (PSS) (composition: 119.0 mM NaCl, 4.7 mM KCl, 1.2 mM MgSO4, 24.9 mM NaHCO3, 1.2 mM KH2PO4, 2.5 mM CaCl2 and 11.1 mM glucose) supplemented with 1 μM prazosin (α1-adrenoceptor antagonist) and 30 nM ICI118551 (β2-adrenoceptor antagonist), aerated with 95% O2/5% CO2 gas mix, warmed and maintained at approximately 37° C. throughout the experiment. Changes in force production were recorded using transducers. […]
In initial experiments the parameters for the EFS were assessed by performing a frequency curve to determine a frequency that would give a response that was approximately 80% of the response seen to 80 mM KCl. Optimal EFS parameters were determined to be: 30 Volts, square pulse of 0.1 ms, train of 4 seconds every 120 seconds, 15 Hz. […]
Pilot studies to determine EC90 concentrations of the test compounds were performed. […] From the data obtained in these experiments, EC90 concentrations of the test compounds were determined for use in subsequent experiments. […]

beta-3 adrenoceptor [2] = molecular target: T1, beta-3 adrenoceptor; assay: Receptor desensitization/washout: CCRC after incubation with EC90 concentration and PSS washout, rat bladder strips; type: cell-based
Method: Macroscopically normal bladders obtained from Male CD rats (220-250 g) were used. […] Each bladder was cleaned free of surrounding connective tissue and halved longitudinally. The bladder longitudinal smooth muscle, with the urothelium still attached were mounted in 25 mL organ baths containing physiological saline solution (PSS) (composition: 119.0 mM NaCl, 4.7 mM KCl, 1.2 mM MgSO4, 24.9 mM NaHCO3, 1.2 mM KH2PO4, 2.5 mM CaCl2 and 11.1 mM glucose) supplemented with 1 μM prazosin (α1-adrenoceptor antagonist) and 30 nM ICI118551 (β2-adrenoceptor antagonist), aerated with 95% O2/5% CO2 gas mix, warmed and maintained at approximately 37° C. throughout the experiment. Changes in force production were recorded using transducers. After mounting, the bladder halves were allowed to equilibrate for at least 30 min before they were set to a stable tension of approximately 1.0 g. The tissue was then allowed to equilibrate over at least a 60 min period with washes every 15 min.
In initial experiments the parameters for the EFS were assessed by performing a frequency curve to determine a frequency that would give a response that was approximately 80% of the response seen to 80 mM KCl. Optimal EFS parameters were determined to be: 30 Volts, square pulse of 0.1 ms, train of 4 seconds every 120 seconds, 15 Hz. This frequency was then used to stimulate the tissue for all subsequent experiments. The viability of bladder strips was tested by stimulating the tissue with EFS for minimum of ten minutes.
Following compound incubation, the tissues were washed with PSS for a period of 1, 3 or 6 hr, with washes approximately every 15 min, to remove the drug. At the end of the final wash period the tissues were stimulated with EFS, and left to equilibrate for at least 30 min. A CCRC was then performed in each tissue. Tissue responses were calculated as the mean (SEM) and expressed as percentage of EFS induced tone.
Tissues were incubated with the EC90 concentration of the test compounds for one hr followed by one hr, three hr or six hr of washing with PSS. […] This EFS-induced potentiation of bladder contraction from baseline was not observed with solabegron. […] Effect of the washout period following a […] incubation with test compound.
In the next series of experiments, tissues were incubated with the EC90 concentration of the test compounds for three hr followed by either one hr, three hr or six hr of washing with PSS.

beta-3 adrenoceptor [3] = molecular target: T2, beta-3 adrenoceptor (Homo sapiens, UniProt P13945); assay: Desensitization and resensitization in isolated human bladder tissue strips (EFS responses); type: cell-based; design: dose or concentration left out as unconfirmed
T2 construct: from tissue; host or cells: human urinary bladder muscle strips
T2 sequence (P13945 whole entry): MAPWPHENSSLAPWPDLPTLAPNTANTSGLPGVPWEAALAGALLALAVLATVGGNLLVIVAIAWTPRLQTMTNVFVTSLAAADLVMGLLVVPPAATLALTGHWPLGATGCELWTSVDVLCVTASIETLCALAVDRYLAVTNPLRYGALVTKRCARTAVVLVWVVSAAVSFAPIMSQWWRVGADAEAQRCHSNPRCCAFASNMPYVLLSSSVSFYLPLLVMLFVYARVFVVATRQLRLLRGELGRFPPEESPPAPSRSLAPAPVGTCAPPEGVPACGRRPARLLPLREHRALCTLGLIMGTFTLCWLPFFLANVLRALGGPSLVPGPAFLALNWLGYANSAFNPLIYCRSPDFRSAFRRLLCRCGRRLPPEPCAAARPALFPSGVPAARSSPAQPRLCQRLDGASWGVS
Method: Beta-3 adrenoceptor desensitization and resensitization were examined in the human bladder. Similar to the protocol used in the rat bladder, isolated human bladder tissue strips were studied for EFS responses. Optimal EFS parameters were determined to be: 30 volts, square pulse of 0.1 ms, train of 5 seconds every 60 seconds, 8-10 Hz. […] Following compound incubation, the tissues were washed with PSS for a period of 1 or 3 hr, with washes approximately every 15 min, to remove the drug. At the end of the final wash period the tissues were stimulated with EFS, and left to equilibrate for at least 30 min. A concentration-response curve was then performed in each tissue.

Solubility of solabegron = type: physicochemical
overactive bladder = details: women with moderate to severe OAB; cited from earlier work
[4] = three hr incubation with EC90, one hr of washing

Row | solubility (Solubility of solabegron) | SMILES | EC90 (beta-3 adrenoceptor [1]) [nM] | response (reduction of EFS-induced tone) after pre-exposure (beta-3 adrenoceptor [2]; [4]) | response (reduction of EFS-induced tone) after pre-exposure (beta-3 adrenoceptor [2]; one hr incubation with EC90, one hr of washing with PSS, vs vehicle incubation) | response (reduction of EFS-induced tone) after pre-exposure (beta-3 adrenoceptor [2]; one hr incubation with EC90, three hr of washing, responses to higher concentrations) | response (reduction of EFS-induced tone) after pre-exposure (beta-3 adrenoceptor [2]; three hr incubation with EC90, three hr of washing, responses to the highest concentrations) | inhibition of EFS-induced bladder smooth muscle contraction (beta-3 adrenoceptor [3]) | safety and tolerability, adverse events as compared to placebo (overactive bladder) | symptoms of overactive bladder (overactive bladder)
1 | – | C[C@H](Cc1ccc2c(c1)OC(C(=O)[O-])(C(=O)[O-])O2)NC[C@H](O)c1cccc(Cl)c1.[Na+].[Na+] [CL-316,243, reference compound] | 42 | significantly attenuated | – | – | – | – | – | –
2 | pH dependent and low solubility | O=C(O)c1cccc(-c2cccc(NCCNC[C@H](O)c3cccc(Cl)c3)c2)c1 [Solabegron, 3′-[(2-{[(2R)-2-(3-chlorophenyl)-2-hydroxyethyl]amino}ethyl)amino]biphenyl-3-carboxylic acid] | – | significantly attenuated | significantly attenuated | significantly attenuated | significantly attenuated | concentration-dependent inhibition | safe, well-tolerated, and does not demonstrate significant differences in adverse events as compared to placebo | significantly reduce the symptoms of overactive bladder
